Reference: patent US11117892B2, “Pyrrolo-pyridine derivative compound, method for preparing same, and pharmaceutical composition containing same as active ingredient for prevention or treatment of protein kinase-related diseases” (DAEGU-GYEONGBUK MEDICAL INNOVATION FOUNDATION, priority 2017, dated 2021)
Like-named read-outs stand apart in the source and are kept apart here.

How the values were obtained:
Experiment in all cases: scanMAX Kinase assay panel
Format in all cases: binding
Conditions in all cases: read-out: % control
[1] = molecular target: MINK (Homo sapiens (Human), UniProt Q8N4C8)
How it was run: (§1)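 Each compound is run against the kinase on the scanMAX selectivity panel. Its signal is then expressed relative to a DMSO negative control (100%) and a positive control compound (0%).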

[2] = molecular target: PKMYT1 (Homo sapiens (Human), UniProt Q99640)
How it was run: as §1

[3] = molecular target: ULK2 (Homo sapiens (Human), UniProt Q8IYT8)
How it was run: as §1

[4] = molecular target: CAMK1G (Homo sapiens (Human), UniProt Q96NX5)
How it was run: as §1

[5] = molecular target: PCTK1 (Homo sapiens (Human), UniProt Q00536)
How it was run: as §1

[6] = molecular target: YSK1 (Homo sapiens (Human), UniProt O00506)
How it was run: as §1

[7] = molecular target: SBK1 (Homo sapiens (Human), UniProt Q52WX2)
How it was run: as §1

[8] = molecular target: CAMK2G (Homo sapiens (Human), UniProt Q13555)
How it was run: as §1

[9] = molecular target: JAK1(JH2domain-pseudokinase) (Homo sapiens (Human), UniProt P23458)
How it was run: as §1

[10] = molecular target: CHEK1 (Homo sapiens (Human), UniProt O14757)
How it was run: as §1

[11] = molecular target: GAK (Homo sapiens (Human), UniProt O14976)
How it was run: as §1

[12] = molecular target: TRKB (Homo sapiens (Human), UniProt Q16620)
How it was run: as §1

[13] = molecular target: PRKX (Homo sapiens (Human), UniProt P51817)
How it was run: as §1

[14] = molecular target: CAMKK1 (Homo sapiens (Human), UniProt Q8N5S9)
How it was run: as §1

[15] = molecular target: PIM2 (Homo sapiens (Human), UniProt Q9P1W9)
How it was run: as §1

[16] = molecular target: p38-alpha (Homo sapiens (Human), UniProt Q16539)
How it was run: as §1

[17] = molecular target: LATS1 (Homo sapiens (Human), UniProt O95835)
How it was run: as §1

[18] = molecular target: MARK1 (Homo sapiens (Human), UniProt Q9P0L2)
How it was run: as §1

[19] = molecular target: SYK (Homo sapiens (Human), UniProt P43405)
How it was run: as §1

[20] = molecular target: PRKD2 (Homo sapiens (Human), UniProt Q9BZL6)
How it was run: as §1

[21] = molecular target: MAP3K2 (Homo sapiens (Human), UniProt Q9Y2U5)
How it was run: as §1

[22] = molecular target: PIK3C2G (Homo sapiens (Human), UniProt O75747)
How it was run: as §1

[23] = molecular target: PYK2 (Homo sapiens (Human), UniProt Q14289)
How it was run: as §1

[24] = molecular target: MYO3A (Homo sapiens (Human), UniProt Q8NEV4)
How it was run: as §1

[25] = molecular target: EPHA7 (Homo sapiens (Human), UniProt Q15375)
How it was run: as §1

[26] = molecular target: MELK (Homo sapiens (Human), UniProt Q14680)
How it was run: as §1

[27] = molecular target: MEK1 (Homo sapiens (Human), UniProt Q02750)
How it was run: as §1

[28] = molecular target: ABL1(F317I)-nonphosphorylated (Homo sapiens (Human), UniProt P00519, F317I)
How it was run: as §1

[29] = molecular target: FLT3(N841I) (Homo sapiens (Human), UniProt P36888, N841I)
How it was run: as §1

[30] = molecular target: EPHA2 (Homo sapiens (Human), UniProt P29317)
How it was run: as §1

[31] = molecular target: MKNK2 (Homo sapiens (Human), UniProt Q9HBH9)
How it was run: as §1

[32] = molecular target: EPHA8 (Homo sapiens (Human), UniProt P29322)
How it was run: as §1

[33] = molecular target: DAPK1 (Homo sapiens (Human), UniProt P53355)
How it was run: as §1

[34] = molecular target: FLT3(D835V) (Homo sapiens (Human), UniProt P36888, D835V)
How it was run: as §1

[35] = molecular target: GSK3A (Homo sapiens (Human), UniProt P49840)
How it was run: as §1

[36] = molecular target: TEC (Homo sapiens (Human), UniProt P42680)
How it was run: as §1

[37] = molecular target: ABL1(Q252H)-phosphorylated (Homo sapiens (Human), UniProt P00519, Q252H)
How it was run: as §1

[38] = molecular target: CDK8 (Homo sapiens (Human), UniProt P49336)
How it was run: as §1

[39] = molecular target: TRPM6 (Homo sapiens (Human), UniProt Q9BX84)
How it was run: as §1

EPHA8, sequence (P29322 28-1005): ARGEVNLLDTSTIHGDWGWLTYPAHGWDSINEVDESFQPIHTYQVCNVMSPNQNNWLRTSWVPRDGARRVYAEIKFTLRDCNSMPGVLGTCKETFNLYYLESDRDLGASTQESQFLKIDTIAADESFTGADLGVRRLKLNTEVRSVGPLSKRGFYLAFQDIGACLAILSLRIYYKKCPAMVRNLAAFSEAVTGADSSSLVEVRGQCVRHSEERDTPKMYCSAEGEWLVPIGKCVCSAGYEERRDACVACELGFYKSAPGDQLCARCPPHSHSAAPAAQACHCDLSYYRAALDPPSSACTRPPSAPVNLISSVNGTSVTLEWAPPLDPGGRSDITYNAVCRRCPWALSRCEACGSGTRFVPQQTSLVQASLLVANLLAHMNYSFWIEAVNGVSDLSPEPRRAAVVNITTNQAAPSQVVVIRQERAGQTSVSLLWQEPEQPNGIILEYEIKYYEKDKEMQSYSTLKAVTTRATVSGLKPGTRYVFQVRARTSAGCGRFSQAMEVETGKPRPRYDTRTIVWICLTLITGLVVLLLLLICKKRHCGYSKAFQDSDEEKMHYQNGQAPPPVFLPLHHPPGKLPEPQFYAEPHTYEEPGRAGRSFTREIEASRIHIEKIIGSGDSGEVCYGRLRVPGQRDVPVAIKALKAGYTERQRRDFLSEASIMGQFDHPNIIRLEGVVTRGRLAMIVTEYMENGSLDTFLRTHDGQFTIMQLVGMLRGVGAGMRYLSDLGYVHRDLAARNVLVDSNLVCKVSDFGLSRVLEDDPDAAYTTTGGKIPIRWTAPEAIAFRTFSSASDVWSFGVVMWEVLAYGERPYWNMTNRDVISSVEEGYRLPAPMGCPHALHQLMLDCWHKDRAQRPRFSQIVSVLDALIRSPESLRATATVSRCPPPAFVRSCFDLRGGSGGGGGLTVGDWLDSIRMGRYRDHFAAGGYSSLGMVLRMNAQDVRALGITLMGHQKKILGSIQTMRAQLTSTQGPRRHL
PRKX, sequence (P51817 whole entry): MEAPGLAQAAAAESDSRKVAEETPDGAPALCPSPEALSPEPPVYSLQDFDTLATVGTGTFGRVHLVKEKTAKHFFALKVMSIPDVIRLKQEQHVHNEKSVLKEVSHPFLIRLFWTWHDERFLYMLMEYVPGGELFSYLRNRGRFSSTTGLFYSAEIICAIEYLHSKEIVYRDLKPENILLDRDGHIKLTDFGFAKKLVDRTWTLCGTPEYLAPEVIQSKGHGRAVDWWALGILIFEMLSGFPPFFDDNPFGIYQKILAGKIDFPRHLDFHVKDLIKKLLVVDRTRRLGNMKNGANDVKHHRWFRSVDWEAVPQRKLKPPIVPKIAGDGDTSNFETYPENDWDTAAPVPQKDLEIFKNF
CAMK2G, sequence (Q13555 whole entry): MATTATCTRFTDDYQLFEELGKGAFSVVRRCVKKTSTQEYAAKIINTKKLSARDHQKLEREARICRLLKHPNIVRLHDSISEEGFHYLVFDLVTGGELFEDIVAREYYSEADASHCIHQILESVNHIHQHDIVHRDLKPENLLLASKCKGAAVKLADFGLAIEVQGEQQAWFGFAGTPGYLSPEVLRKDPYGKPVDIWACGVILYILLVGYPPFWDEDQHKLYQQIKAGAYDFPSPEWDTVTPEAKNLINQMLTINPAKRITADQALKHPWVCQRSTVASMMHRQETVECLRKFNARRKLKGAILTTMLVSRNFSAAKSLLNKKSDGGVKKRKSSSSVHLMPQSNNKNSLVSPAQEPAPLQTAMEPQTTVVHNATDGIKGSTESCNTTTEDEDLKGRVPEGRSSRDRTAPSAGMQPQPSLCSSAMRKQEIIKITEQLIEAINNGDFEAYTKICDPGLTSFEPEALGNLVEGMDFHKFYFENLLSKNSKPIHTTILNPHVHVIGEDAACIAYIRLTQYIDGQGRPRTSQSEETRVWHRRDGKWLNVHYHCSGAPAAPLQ
EPHA7, sequence (Q15375 28-998): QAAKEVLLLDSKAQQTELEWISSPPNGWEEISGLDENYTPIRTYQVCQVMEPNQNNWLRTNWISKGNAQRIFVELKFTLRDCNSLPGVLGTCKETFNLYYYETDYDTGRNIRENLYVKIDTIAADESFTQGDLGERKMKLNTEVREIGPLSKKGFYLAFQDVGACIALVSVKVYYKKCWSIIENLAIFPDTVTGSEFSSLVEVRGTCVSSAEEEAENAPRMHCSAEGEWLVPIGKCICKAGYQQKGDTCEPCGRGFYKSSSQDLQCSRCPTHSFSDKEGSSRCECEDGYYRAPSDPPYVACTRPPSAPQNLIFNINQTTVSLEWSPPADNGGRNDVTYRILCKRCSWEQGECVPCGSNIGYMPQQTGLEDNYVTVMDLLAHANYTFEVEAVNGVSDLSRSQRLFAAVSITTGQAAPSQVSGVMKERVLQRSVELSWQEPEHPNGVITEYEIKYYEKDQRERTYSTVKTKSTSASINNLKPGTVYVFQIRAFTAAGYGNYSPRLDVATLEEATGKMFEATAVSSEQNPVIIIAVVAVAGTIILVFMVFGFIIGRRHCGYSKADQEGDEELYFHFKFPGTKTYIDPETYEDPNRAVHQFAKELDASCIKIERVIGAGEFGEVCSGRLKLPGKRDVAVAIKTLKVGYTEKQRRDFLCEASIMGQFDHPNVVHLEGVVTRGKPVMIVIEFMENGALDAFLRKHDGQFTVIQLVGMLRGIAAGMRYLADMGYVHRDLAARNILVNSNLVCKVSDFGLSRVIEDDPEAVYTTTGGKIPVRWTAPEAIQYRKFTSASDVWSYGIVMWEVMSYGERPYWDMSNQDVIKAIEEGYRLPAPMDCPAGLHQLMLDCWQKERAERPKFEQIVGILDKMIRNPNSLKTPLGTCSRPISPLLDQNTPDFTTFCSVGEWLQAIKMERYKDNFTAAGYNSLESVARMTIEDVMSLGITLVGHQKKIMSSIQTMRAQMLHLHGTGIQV
MARK1, sequence (Q9P0L2 whole entry): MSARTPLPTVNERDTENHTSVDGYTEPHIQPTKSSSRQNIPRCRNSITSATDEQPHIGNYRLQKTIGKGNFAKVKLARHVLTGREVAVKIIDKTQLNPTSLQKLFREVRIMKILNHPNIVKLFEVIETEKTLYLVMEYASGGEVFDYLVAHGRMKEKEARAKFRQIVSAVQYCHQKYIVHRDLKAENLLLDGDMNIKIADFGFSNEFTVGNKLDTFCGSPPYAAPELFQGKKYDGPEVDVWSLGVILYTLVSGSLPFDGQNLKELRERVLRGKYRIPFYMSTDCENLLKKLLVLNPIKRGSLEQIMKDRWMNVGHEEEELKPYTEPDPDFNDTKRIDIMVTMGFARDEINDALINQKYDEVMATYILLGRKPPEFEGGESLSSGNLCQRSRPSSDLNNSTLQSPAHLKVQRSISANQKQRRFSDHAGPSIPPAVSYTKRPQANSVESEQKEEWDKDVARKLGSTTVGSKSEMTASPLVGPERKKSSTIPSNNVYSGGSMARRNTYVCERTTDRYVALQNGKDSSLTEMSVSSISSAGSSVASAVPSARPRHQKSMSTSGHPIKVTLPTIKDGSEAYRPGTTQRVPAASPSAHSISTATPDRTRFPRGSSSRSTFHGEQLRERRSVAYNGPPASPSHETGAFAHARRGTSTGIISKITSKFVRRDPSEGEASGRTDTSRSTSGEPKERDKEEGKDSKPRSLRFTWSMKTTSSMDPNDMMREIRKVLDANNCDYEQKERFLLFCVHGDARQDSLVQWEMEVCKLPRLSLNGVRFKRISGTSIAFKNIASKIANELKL
CAMK1G, sequence (Q96NX5 whole entry): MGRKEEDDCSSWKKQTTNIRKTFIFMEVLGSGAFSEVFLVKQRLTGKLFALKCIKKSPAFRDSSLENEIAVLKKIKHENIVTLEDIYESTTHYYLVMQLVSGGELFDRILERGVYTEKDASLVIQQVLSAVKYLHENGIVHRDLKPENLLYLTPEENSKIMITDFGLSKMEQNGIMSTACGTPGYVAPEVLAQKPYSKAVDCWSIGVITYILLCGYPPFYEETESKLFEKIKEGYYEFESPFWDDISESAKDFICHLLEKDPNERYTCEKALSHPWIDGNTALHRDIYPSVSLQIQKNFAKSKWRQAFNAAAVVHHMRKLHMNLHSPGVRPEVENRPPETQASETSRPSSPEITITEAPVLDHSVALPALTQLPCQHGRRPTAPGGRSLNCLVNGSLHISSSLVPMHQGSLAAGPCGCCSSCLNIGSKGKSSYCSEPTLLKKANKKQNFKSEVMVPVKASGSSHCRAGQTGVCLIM
CAMKK1, sequence (Q8N5S9 whole entry): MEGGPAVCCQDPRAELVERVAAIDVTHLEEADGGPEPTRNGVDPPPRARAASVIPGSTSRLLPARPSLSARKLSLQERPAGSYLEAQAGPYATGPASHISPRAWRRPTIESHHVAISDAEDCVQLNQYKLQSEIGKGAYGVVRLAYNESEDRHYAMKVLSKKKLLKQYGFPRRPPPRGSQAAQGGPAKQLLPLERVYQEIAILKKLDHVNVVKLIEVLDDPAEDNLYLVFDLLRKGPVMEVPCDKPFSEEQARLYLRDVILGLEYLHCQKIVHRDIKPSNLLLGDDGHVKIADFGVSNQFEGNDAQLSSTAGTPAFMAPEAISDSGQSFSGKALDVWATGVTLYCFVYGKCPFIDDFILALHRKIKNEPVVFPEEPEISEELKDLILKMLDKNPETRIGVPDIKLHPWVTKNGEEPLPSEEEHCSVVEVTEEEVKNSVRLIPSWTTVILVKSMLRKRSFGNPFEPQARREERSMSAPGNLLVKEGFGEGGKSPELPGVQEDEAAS
MEK1, sequence (Q02750 whole entry): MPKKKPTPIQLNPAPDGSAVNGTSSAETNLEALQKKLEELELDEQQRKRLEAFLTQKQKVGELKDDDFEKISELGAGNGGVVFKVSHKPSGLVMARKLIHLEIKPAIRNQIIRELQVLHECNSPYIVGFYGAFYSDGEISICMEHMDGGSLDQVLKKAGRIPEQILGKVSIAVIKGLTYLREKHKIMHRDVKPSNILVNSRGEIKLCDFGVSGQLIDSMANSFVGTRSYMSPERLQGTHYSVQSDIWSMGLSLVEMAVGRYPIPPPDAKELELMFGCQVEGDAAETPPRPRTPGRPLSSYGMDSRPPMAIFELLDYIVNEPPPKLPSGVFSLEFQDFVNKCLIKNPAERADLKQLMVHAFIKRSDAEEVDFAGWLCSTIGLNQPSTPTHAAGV

Structure (SMILES)	remaining binding at 1 µM [1] [%]	remaining binding at 1 µM [2] [%]	remaining binding at 1 µM [3] [%]	remaining binding at 1 µM [4] [%]	remaining binding at 1 µM [5] [%]	remaining binding at 1 µM [6] [%]	remaining binding at 1 µM [7] [%]	remaining binding at 1 µM [8] [%]	remaining binding at 1 µM [9] [%]	remaining binding at 1 µM [10] [%]	remaining binding at 1 µM [11] [%]	remaining binding at 1 µM [12] [%]	remaining binding at 1 µM [13] [%]	remaining binding at 1 µM [14] [%]	remaining binding at 1 µM [15] [%]	remaining binding at 1 µM [16] [%]	remaining binding at 1 µM [17] [%]	remaining binding at 1 µM [18] [%]	remaining binding at 1 µM [19] [%]	remaining binding at 1 µM [20] [%]	further results
CCNc1cc(Nc2ccc(C(=O)N3CCC(N4CCOCC4)CC3)cc2OC)nc2[nH]cc(C#N)c12 [Example 18, 4-(ethylamino)-6-((2-methoxy-4-(4-morpholinopiperidine-1-carbonyl)phenyl)amino)-1H-pyrrolo[2,3-b]pyridine-3-carbonitrile]	55	90	67	71	98	99	86	77	82	100	15	100	92	70	96	100	97	84	66	2	remaining binding at 1 µM [21]: 79%; remaining binding at 1 µM [22]: 92%; remaining binding at 1 µM [23]: 60%; remaining binding at 1 µM [24]: 71%; remaining binding at 1 µM [25]: 94%; remaining binding at 1 µM [26]: 62%; remaining binding at 1 µM [27]: 19%; remaining binding at 1 µM [28]: 89%; remaining binding at 1 µM [29]: 89%; remaining binding at 1 µM [30]: 97%; remaining binding at 1 µM [31]: 60%; remaining binding at 1 µM [32]: 85%; remaining binding at 1 µM [33]: 16%; remaining binding at 1 µM [34]: 74%; remaining binding at 1 µM ([35]; GSK3A, 1 uM): 100%; remaining binding at 1 µM [36]: 100%; remaining binding at 1 µM [37]: 100%; remaining binding at 1 µM [38]: 100%; remaining binding at 1 µM [39]: 87%
CCNc1cc(Nc2ccc(C(=O)N3CCC(N4CCOCC4)CC3)cc2OC)nc2[nH]cc(C(F)(F)F)c12 [Example 57, (4-((4-(ethylamino)-3-(trifluoromethyl)-1H-pyrrolo[2,3-b]pyridin-6-yl)amino)-3-methoxyphenyl) (4-morpholinopiperidin-1-yl)methanone]	100	96	93	63	83	73	90	72	45	91	41	100	80	59	98	83	94	82	68	83	remaining binding at 1 µM [21]: 100%; remaining binding at 1 µM [22]: 100%; remaining binding at 1 µM [23]: 76%; remaining binding at 1 µM [24]: 70%; remaining binding at 1 µM [25]: 100%; remaining binding at 1 µM [26]: 69%; remaining binding at 1 µM [27]: 100%; remaining binding at 1 µM [28]: 96%; remaining binding at 1 µM [29]: 85%; remaining binding at 1 µM [30]: 83%; remaining binding at 1 µM [31]: 95%; remaining binding at 1 µM [32]: 100%; remaining binding at 1 µM [33]: 70%; remaining binding at 1 µM [34]: 92%; remaining binding at 1 µM [35]: 90%; remaining binding at 1 µM [36]: 92%; remaining binding at 1 µM [37]: 100%; remaining binding at 1 µM [38]: 90%; remaining binding at 1 µM [39]: 97%
